From patent publication US11541055B2, “Inhibitors of human immunodeficiency virus replication” (ViiV Healthcare UK (No. 5) LIMITED, priority 2018, dated 2023)

What was measured:
[1] = test system: recombinant NL4-3 virus (Renilla luciferase) in MT-2 cells; assay: HIV cell culture assay (antiviral activity, luciferase readout); type: cell-based; settings: Renilla, NL43
Method in brief: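 Antiviral EC50 was derived via the median effect equation from luciferase signal. The signal came from MT-2 cultures infected for 4–5 days with a nef-deleted, Renilla luciferase-expressing NL4-3 reporter virus (made in 293T cells) in the presence of compound dilutions.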

[2] = Compound cytotoxicity, XTT-based colorimetric assay; type: cell-based; settings: human; uninfected MT2 cells, day 4, XTT
Method in brief: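 Run under the antiviral-assay protocol but without virus. Viability was read on day 4 and CC50 values were derived from the readout.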

| SMILES | EC50 [1] | CC50 at 4 days [2] |
| --- | --- | --- |
| Cc1nc(C)c(C)c(-c2ccc3c(=O)n(-c4ccc(Cl)c5c(NS(C)(=O)=O)nn(CC(F)(F)F)c45)c([C@H](Cc4cc(F)cc(F)c4)NC(=O)Cn4nc(C(F)F)c5c4C(F)(F)[C@@H]4C[C@H]54)nc3c2)n1 (atropisomer, axis not shown) [Example 109, N-[(1S)-1-{3-[4-chloro-3-methanesulfonamido-1-(2,2,2-trifluoroethyl)-1H-indazol-7-yl]-4-oxo-7-(2,5,6-trimethylpyrimidin-4-yl)-3,4-dihydroquinazolin-2-yl}-2-(3,5-difluorophenyl)ethyl]-2-[(2S,4R)-9-(difluoromethyl)-5,5-difluoro-7,8-diazatricyclo[4.3.0.0^2,^4]nona-1(6),8-dien-7-yl]acetamide] | 0.11 nM | > 500 nM |
| CCc1nccnc1-c1ccc2c(=O)n(-c3ccc(Cl)c4c(NS(C)(=O)=O)nn(C)c34)c([C@H](Cc3cc(F)cc(F)c3)NC(=O)Cn3nc(C(F)F)c4c3C(F)(F)[C@@H]3C[C@H]43)nc2c1 (atropisomer, axis not shown; (P)) [Example 17, N—((S)-1-((3P)-3-(4-chloro-1-methyl-3-(methylsulfonamido)-1H-indazol-7-yl)-7-(3-ethylpyrazin-2-yl)-4-oxo-3,4-dihydroquinazolin-2-yl)-2-(3,5-difluorophenyl)ethyl)-2-((3bS,4aR)-3-(difluoromethyl)-5,5-difluoro-3b,4,4a,5-tetrahydro-1H-cyclopropa[3,4]cyclopenta[1,2-c]pyrazol-1-yl)acetamide] | 0.11 nM | > 500 nM |
| Cn1nc(NS(C)(=O)=O)c2c(Cl)ccc(-n3c([C@H](Cc4cc(F)cc(F)c4)NC(=O)Cn4nc(C(F)F)c5c4C(F)(F)[C@@H]4C[C@H]54)nc4cc(-c5ccnc(C(C)(C)C)n5)ccc4c3=O)c21 (atropisomer, axis not shown; (P)) [Example 72, N—((S)-1-(7-(2-(tert-butyl)pyrimidin-4-yl)-(3P)-3-(4-chloro-1-methyl-3-(methylsulfonamido)-1H-indazol-7-yl)-4-oxo-3,4-dihydroquinazolin-2-yl)-2-(3,5-difluorophenyl)ethyl)-2-((3bS,4aR)-3-(difluoromethyl)-5,5-difluoro-3b,4,4a,5-tetrahydro-1H-cyclopropa[3,4]cyclopenta[1,2-c]pyrazol-1-yl)acetamide] | 0.43 nM | > 500 nM |
| Cc1cc(C)nc(-c2ccc3c(=O)n(-c4ccc(Cl)c5c(NS(C)(=O)=O)nn(C)c45)c([C@H](Cc4cc(F)cc(F)c4)NC(=O)Cn4nc(C(F)F)c5c4C(F)(F)[C@@H]4C[C@H]54)nc3c2)c1 (atropisomer, axis not shown; (P)) [Example 1, N—((S)-1-((3P)-3-(4-chloro-1-methyl-3-(methylsulfonamido)-1H-indazol-7-yl)-7-(4,6-dimethylpyridin-2-yl)-4-oxo-3,4-dihydroquinazolin-2-yl)-2-(3,5-difluorophenyl)ethyl)-2-((3bS,4aR)-3-(difluoromethyl)-5,5-difluoro-3b,4,4a,5-tetrahydro-1H-cyclopropa[3,4]cyclopenta[1,2-c]pyrazol-1-yl)acetamide] | 0.15 nM | > 500 nM |
| Cn1nc(NS(C)(=O)=O)c2c(Cl)ccc(-n3c([C@H](Cc4cc(F)cc(F)c4)NC(=O)Cn4nc(C(F)F)c5c4C(F)(F)[C@@H]4C[C@H]54)nc4cc(-c5nccc(C(F)(F)F)n5)ccc4c3=O)c21 (atropisomer, axis not shown; (P)) [Example 3, N—((S)-1-((3P)-3-(4-chloro-1-methyl-3-(methylsulfonamido)-1H-indazol-7-yl)-4-oxo-7-(4-(trifluoromethyl)pyrimidin-2-yl)-3,4-dihydroquinazolin-2-yl)-2-(3,5-difluorophenyl)ethyl)-2-((3bS,4aR)-3-(difluoromethyl)-5,5-difluoro-3b,4,4a,5-tetrahydro-1H-cyclopropa[3,4]cyclopenta[1,2-c]pyrazol-1-yl)acetamide] | 0.1 nM | > 500 nM |
| Cc1ccc(F)c(-c2ccc3c(=O)n(-c4ccc(Cl)c5c(NS(C)(=O)=O)nn(C)c45)c([C@H](Cc4cc(F)cc(F)c4)NC(=O)Cn4nc(C(F)F)c5c4C(F)(F)[C@@H]4C[C@H]54)nc3c2)n1 (atropisomer, axis not shown; (P)) [Example 22, N—((S)-1-((3P)-3-(4-chloro-1-methyl-3-(methylsulfonamido)-1H-indazol-7-yl)-7-(3-fluoro-6-methylpyridin-2-yl)-4-oxo-3,4-dihydroquinazolin-2-yl)-2-(3,5-difluorophenyl)ethyl)-2-((3bS,4aR)-3-(difluoromethyl)-5,5-difluoro-3b,4,4a,5-tetrahydro-1H-cyclopropa[3,4]cyclopenta[1,2-c]pyrazol-1-yl)acetamide] | 0.11 nM | > 500 nM |
| Cc1nc(C)c(-c2ccc3c(=O)n(-c4ccc(Cl)c5c(NS(C)(=O)=O)nn(C)c45)c([C@H](Cc4cc(F)cc(F)c4)NC(=O)Cn4nc(C(F)F)c5c4C(F)(F)[C@@H]4C[C@H]54)nc3c2)s1 (atropisomer, axis not shown; (P)) [Example 6, N—((S)-1-((3P)-3-(4-chloro-1-methyl-3-(methylsulfonamido)-1H-indazol-7-yl)-7-(2,4-dimethylthiazol-5-yl)-4-oxo-3,4-dihydroquinazolin-2-yl)-2-(3,5-difluorophenyl)ethyl)-2-((3bS,4aR)-3-(difluoromethyl)-5,5-difluoro-3b,4,4a,5-tetrahydro-1H-cyclopropa[3,4]cyclopenta[1,2-c]pyrazol-1-yl)acetamide] | 0.12 nM | > 500 nM |
| Cc1ccc(-n2c([C@H](Cc3cc(F)cc(F)c3)NC(=O)Cn3nc(C(F)F)c4c3C(F)(F)[C@@H]3C[C@H]43)nc3cc(-c4cccnn4)ccc3c2=O)c2c1c(NS(C)(=O)=O)nn2C (atropisomer, axis not shown) [Example 141, 2-[(2S,4R)-9-(difluoromethyl)-5,5-difluoro-7,8-diazatricyclo[4.3.0.0^2,^4]nona-1(6),8-dien-7-yl]-N-[(1S)-2-(3,5-difluorophenyl)-1-[3-(3-methanesulfonamido-1,4-dimethyl-1H-indazol-7-yl)-4-oxo-7-(pyridazin-3-yl)-3,4-dihydroquinazolin-2-yl]ethyl]acetamide] | 0.13 nM | > 500 nM |
| Cn1nc(NS(C)(=O)=O)c2c(Cl)ccc(-n3c([C@H](Cc4cc(F)cc(F)c4)NC(=O)Cn4nc(C(F)F)c5c4C(F)(F)[C@@H]4C[C@H]54)nc4cc(-c5nccc(C(F)F)n5)ccc4c3=O)c21 (atropisomer, axis not shown; (P)) [Example 56, N—((S)-1-((3P)-3-(4-chloro-1-methyl-3-(methylsulfonamido)-1H-indazol-7-yl)-7-(4-(difluoromethyl)pyrimidin-2-yl)-4-oxo-3,4-dihydroquinazolin-2-yl)-2-(3,5-difluorophenyl)ethyl)-2-((3bS,4aR)-3-(difluoromethyl)-5,5-difluoro-3b,4,4a,5-tetrahydro-1H-cyclopropa[3,4]cyclopenta[1,2-c]pyrazol-1-yl)acetamide] | 0.056 nM | > 500 nM |
| CCc1cc(C)nc(-c2ccc3c(=O)n(-c4ccc(Cl)c5c(NS(C)(=O)=O)nn(C)c45)c([C@H](Cc4cc(F)cc(F)c4)NC(=O)Cn4nc(C(F)F)c5c4C(F)(F)[C@@H]4C[C@H]54)nc3c2)n1 (atropisomer, axis not shown; (P)) [Example 36, N—((S)-1-((3P)-3-(4-chloro-1-methyl-3-(methylsulfonamido)-1H-indazol-7-yl)-7-(4-ethyl-6-methylpyrimidin-2-yl)-4-oxo-3,4-dihydroquinazolin-2-yl)-2-(3,5-difluorophenyl)ethyl)-2-((3bS,4aR)-3-(difluoromethyl)-5,5-difluoro-3b,4,4a,5-tetrahydro-1H-cyclopropa[3,4]cyclopenta[1,2-c]pyrazol-1-yl)acetamide] | 0.087 nM | > 500 nM |
| Cc1cc(C(F)(F)F)nc(-c2ccc3c(=O)n(-c4ccc(Cl)c5c(NS(C)(=O)=O)nn(C)c45)c([C@H](Cc4cc(F)cc(F)c4)NC(=O)Cn4nc(C(F)F)c5c4C(F)(F)[C@@H]4C[C@H]54)nc3c2)n1 [Example 53, N—((S)-1-((3P)-3-(4-chloro-1-methyl-3-(methylsulfonamido)-1H-indazol-7-yl)-7-(4-methyl-6-(trifluoromethyl)pyrimidin-2-yl)-4-oxo-3,4-dihydroquinazolin-2-yl)-2-(3,5-difluorophenyl)ethyl)-2-((3bS,4aR)-3-(difluoromethyl)-5,5-difluoro-3b,4,4a,5-tetrahydro-1H-cyclopropa[3,4]cyclopenta[1,2-c]pyrazol-1-yl)acetamide] | 0.16 nM | > 500 nM |
| Cc1cc(-c2ccc3c(=O)n(-c4ccc(Cl)c5c(NS(=O)(=O)C6CC6)nn(CC(F)F)c45)c([C@H](Cc4cc(F)cc(F)c4)NC(=O)Cn4nc(C(F)F)c5c4C(F)(F)[C@@H]4C[C@H]54)nc3c2)nc(C)n1 (atropisomer, axis not shown; (P)) [Example 85, N—((S)-1-((3P)-3-(4-chloro-3-(cyclopropanesulfonamido)-1-(2,2-difluoroethyl)-1H-indazol-7-yl)-7-(2,6-dimethylpyrimidin-4-yl)-4-oxo-3,4-dihydroquinazolin-2-yl)-2-(3,5-difluorophenyl)ethyl)-2-((3bS,4aR)-3-(difluoromethyl)-5,5-difluoro-3b,4,4a,5-tetrahydro-1H-cyclopropa[3,4]cyclopenta[1,2-c]pyrazol-1-yl)acetamide] | 0.088 nM | > 500 nM |
